Tested on: GEMS receptors with CBPA11 (BclXL–LD3 and BclXLhigh variants), STAT3-driven SEAP in HEK293T cells
Assay: GEMS SEAP reporter assay, CBPA11 (BclXLhigh, LD3-v and BclXL-v variants) with A-1155463
Assay type: cell-based
Parameters: key to Raw data (SEAP) / SEAP, replicate values / Raw data of Figure 5b / Raw data Figure 5e / Raw data of Independent repeat of CBPA11-v1 vs CBPA11-v1-LD3v3 / Raw data of Independent repeat of CBPA11-v3 vs CBPA11-v3-LD3v3 / Raw data of Figure 5b, CBPA11-v1-LD3v3 (SEAP reporter raw value, single replicate) / Raw data of Figure 5b, CBPA11-v1 (SEAP reporter raw value, single replicate): SEAP activity in U/L in culture supernatant
Text: To rationally design a CBP responding to a chemical input, we used BclXL as the druglow receptor, LD3 as the designed binder and a designed BclXL variant as the drughigh receptor (referred to as BclXLhigh) to construct a CBP responsive to BclXL inhibitors (Fig. 4a). To design BclXLhigh, we used a multistate design computational protocol described elsewhere[26] […] Thus, BclXLhigh-v(1–3) were chosen as the functional drughigh receptors, resulting in three A-1155463-controlled CBPs (referred to as CBPA11-v(1–3)) (Fig. 4c–e).
HEK293T cells were seeded in a 96-well plate 24 h before transfection. The transfection mix in each well consisted of 3 ng of constitutive human CMV promoter driven mammalian STAT3 expression vector (PhCMV-STAT3-pA), 30 ng of STAT3-induced reporter expression (OStat3-PhCMVmin-SEAP-pA) and 50 ng of expression vectors for each GEMS receptor chain (PSV40-IgK-(drughigh receptor)-EpoRm-IL-6RBm-pA and PSV40-IgK-(druglow receptor-GGGGSX3-LD3)-EpoRm-IL-6RBm-pA). For the specific drughigh receptor and druglow receptor used in the different cellular assays, they are indicated as wild type or with mutations. Then, plasmid DNA was mixed with 50 μl opti-MEM (Thermo Fisher) and 600 ng of polyethyleneimine (Polysciences, catalog no. 24765-1). For drug treatment experiments, drugs were added 12 h post-transfection and incubated with cells for 24 h before the SEAP reporter detection assay.
SEAP activity (U l^−1) in cell culture supernatants was quantified by kinetic measurements at 405 nm (1 minute per measurement for 30 cycles) of absorbance increase due to phosphatase-mediated hydrolysis of para-nitrophenyl phosphate (pNPP).
Binding affinities of SPR drug competition assays were calculated using three-parameter nonlinear regression in GraphPad Prism (v.8.3.0). Representative data of cell assays are presented as individual values and mean values (bars). n = 3 refers to biological replicates. All IC50 or EC50 values of cell assays reported were calculated using four-parameter nonlinear regression ± s.d. Bandpass features of cutoff concentrations and Bandwidth90% were estimated based on the curve fitted using bell-shaped curve nonlinear regression in GraphPad Prism (v.8.3.0). […]
Supplementary Figure 4: Design, screening and validation of BclXLhigh variants. a) Screening of BclXLhigh variants in the GEMS platform. […]
Dissociation constant measurement of BclXLhigh-v(1-3) and LD3. Equilibrium curves are fitted using […]
BclXLhigh-v1 (purple), BclXLhigh-v2 (blue), […]
a) Bcl2high-based bandpass filter designs were developed and to respond to different concentrations of […]
corresponding inhibitor. c) Screening of Bcl2high-based bandpass filter variants in the GEMS platform.
The designed binder LD3 was fused to the druglow-receptor (PSV40-IgK-Bcl2-LD3-EpoRm-IL-6RBm-pA) in one EpoR chain and Bcl2high variants with the insensitive Bcl2 (iBcl2) as control in the other EpoR chain (PSV40-IgK-Bcl2high-EpoRm-IL-6RBm-pA). HEK293T cells were transfected with indicated […]
the mean of six biological replicates ± s.d., overlaid with a scatter dot plot of the original data points.
(1 picture or pasted object on this page, not shown here)
Supplementary Figure 6: Binding affinities and drug resistances of Bcl2high-v(2,4,5) assessed by […]
a) Measurement of dissociation constants for Bcl2high-v(2,4,5) and LD3 interactions. Equilibrium curves […]
Bcl2high-v(2,4,5) measured by SPR. 5 μM of Bcl2 or indicated variants were mixed with 10 μM of […]
Bcl2high-v2 (red), Bcl2high-v4
Supplementary Figure 7: Screening of LD3 variants in CBPA11-v(1-3) and raw data of CBPA11-v(1,3) with LD3-v3 variant. a-c) Screening of LD3 and LD3-v(1-3) variants in complex with BclXL for more sensitive CBPA11-v1 (a), CBPA11-v2 (b), CBPA11-v3 (c) in the GEMS platform. The LD3 variants replaced the role of LD3 (PSV40-IgK-BclXL-LD3-v(1-3)-EpoRm-IL-6RBm-pA) in one EpoR chain and BclXLhigh-v(1-3) in the other EpoR chain (PSV40-IgK-BclXLhigh-V(1-3)-EpoRm-IL-6RBm-pA). HEK293T cells were transfected with […]

[1] = SuppFigure 9b, BclXL-v3, A-1155463 1 nM
[2] = SuppFigure 9b, BclXL-v3, A-1155463 3.16 nM
[3] = SuppFigure 9b, BclXL-v3, A-1155463 10 nM
[4] = SuppFigure 9b, BclXL-v3, A-1155463 31.6 nM
[5] = SuppFigure 9b, BclXL-v3, A-1155463 100 nM
[6] = SuppFigure 9b, BclXL-v3, A-1155463 316 nM
[7] = SuppFigure 9b, BclXL-v3, A-1155463 1000 nM
[8] = SuppFigure 9b, BclXL-v3, A-1155463 3160 nM
[9] = SuppFigure 9b, BclXL-v3, A-1155463 10000 nM
[10] = SuppFigure 9b, BclXL, A-1155463 1 nM
[11] = SuppFigure 9b, BclXL, A-1155463 3.16 nM
[12] = SuppFigure 9b, BclXL, A-1155463 10 nM
[13] = SuppFigure 9b, BclXL, A-1155463 31.6 nM
[14] = SuppFigure 9b, BclXL, A-1155463 100 nM
[15] = SuppFigure 9b, BclXL, A-1155463 316 nM
[16] = SuppFigure 9b, BclXL, A-1155463 1000 nM
[17] = SuppFigure 9b, BclXL, A-1155463 3160 nM
[18] = SuppFigure 9b, BclXL, A-1155463 10000 nM
[19] = SuppFigure 9c, LD3, A-1155463 1 nM
[20] = SuppFigure 9c, LD3, A-1155463 3.16 nM
[21] = SuppFigure 9c, LD3, A-1155463 10 nM
[22] = SuppFigure 9c, LD3, A-1155463 31.6 nM
[23] = SuppFigure 9c, LD3, A-1155463 100 nM

CN(C)CC#Cc1ccc(OCCCc2sc(N3CCc4cccc(C(=O)Nc5nc6ccccc6s5)c4C3)nc2C(=O)O)c(F)c1 [A-1155463]
Raw data (SEAP) (SuppFigure 9b, BclXL-v2, A-1155463 10000 nM): 6.174
Normalized data (SEAP) [1]: 52.1022
Raw data (SEAP) [1]: 4.346
Normalized data (SEAP) [2]: 54.3684
Raw data (SEAP) [2]: 4.535
Normalized data (SEAP) [3]: 49.6336
Raw data (SEAP) [3]: 4.14
Normalized data (SEAP) [4]: 58.6885
Raw data (SEAP) [4]: 4.895
Normalized data (SEAP) [5]: 75.7473
Raw data (SEAP) [5]: 6.318
Normalized data (SEAP) [6]: 55.3616
Raw data (SEAP) [6]: 4.618
Normalized data (SEAP) [7]: 57.9749
Raw data (SEAP) [7]: 4.836
Normalized data (SEAP) [8]: 83.7705
Raw data (SEAP) [8]: 6.988
Normalized data (SEAP) [9]: 90.2218
Raw data (SEAP) [9]: 7.526
Normalized data (SEAP) [10]: 18.8536
Raw data (SEAP) [10]: 4.217
Normalized data (SEAP) [11]: 21.8131
Raw data (SEAP) [11]: 4.879
Normalized data (SEAP) [12]: 73.5481
Raw data (SEAP) [12]: 16.4519
Normalized data (SEAP) [13]: 74.0156
Raw data (SEAP) [13]: 16.5565
Normalized data (SEAP) [14]: 100
Raw data (SEAP) [14]: 22.3689
Normalized data (SEAP) [15]: 57.787
Raw data (SEAP) [15]: 12.9263
Normalized data (SEAP) [16]: 39.6131
Raw data (SEAP) [16]: 8.861
Normalized data (SEAP) [17]: 30.6519
Raw data (SEAP) [17]: 6.8565
Normalized data (SEAP) [18]: 26.3116
Raw data (SEAP) [18]: 5.886
Normalized data (SEAP) [19]: 9.095
Raw data (SEAP) [19]: 7.283
Normalized data (SEAP) [20]: 10.2911
Raw data (SEAP) [20]: 8.241
Normalized data (SEAP) [21]: 55.7186
Raw data (SEAP) [21]: 44.6179
Normalized data (SEAP) [22]: 64.2529
Raw data (SEAP) [22]: 51.4519
Normalized data (SEAP) [23]: 100
Raw data (SEAP) [23]: 80.0772
Normalized data (SEAP) (SuppFigure 9c, LD3, A-1155463 316 nM): 76.4435

Source: article PMC11062894, “Protein-based bandpass filters for controlling cellular signaling with chemical inputs” (Nature Chemical Biology, 2023)
